Reference: US8173689B2 (Novartis AG, priority 2006, dated 2012)
Read-outs that look alike come from different tables or passages of the source.

Experiments:
[1] = target: T1, full-length human CSF-1R receptor (Homo sapiens, UniProt P07333); experiment: In vitro inhibition of CSF-1R receptor tyrosine phosphorylation in transfected HEK293H cells stimulated with MCSF; assay type: cell-based; conditions: HEK293-H, tested at about 1 μM, read-out: pCSF1R percent inhibition
T1 construct: transfected with the full-length human CSF-1R receptor cloned in house; expressed in transfected cells; host or cells: HEK293H (Invitrogen Cat. #11631017)
Method: The lysate was then transferred to total CSF-1R antibody coated 96-well plates that had already been blocked with 3% Blocker A from Mesoscale discovery (MSD) for 2 hours and washed afterwards. Lysates were incubated overnight at 4° C. and the plates were then washed 4× with MSD Tris Wash Buffer. […] The plates were read on the Sector 6000 instrument (MSD). Raw data was imported in Abase and EC50s calculated with XL-fit data analysis software.

kinase domain of PDGFRβ = target: T2, kinase domain of PDGFRβ (Homo sapiens, UniProt P09619); experiment: Inhibition of PDGFRb kinase signaling in an in vitro biochemical assay (alphascreen); conditions: tested at about 1 μM, read-out: PDGFRβ percent inhibition
T2 construct: The kinase domain of PDGFRβ was assayed in 50 mM Hepes; purchased Invitrogen P3082

kinase domain of cKIT = target: T3, kinase domain of cKIT (Homo sapiens, UniProt P10721); experiment: Inhibition of cKIT kinase signaling in an in vitro biochemical assay (alphascreen); conditions: tested at about 1 μM, read-out: cKit percent inhibition
T3 construct: The kinase domain of cKIT was assayed in 50 mM Hepes; purchased Upstate 14-559

[2] = target: T4, cytoplasmic domain of the human CSF-1R (Homo sapiens, UniProt P07333); experiment: In vitro kinase assay for colony stimulating factor-1 receptor (AlphaScreen); assay type: biochemical; conditions: tested at about 1 μM, read-out: CSF-1R percent inhibition
T4 construct: Recombinant protein corresponding to the cytoplasmic domain of the human CSF-1R; purchased Invitrogen Corporation, Carlsbad, Calif; PV3249
T4 sequence (P07333 539-972 limits assumed): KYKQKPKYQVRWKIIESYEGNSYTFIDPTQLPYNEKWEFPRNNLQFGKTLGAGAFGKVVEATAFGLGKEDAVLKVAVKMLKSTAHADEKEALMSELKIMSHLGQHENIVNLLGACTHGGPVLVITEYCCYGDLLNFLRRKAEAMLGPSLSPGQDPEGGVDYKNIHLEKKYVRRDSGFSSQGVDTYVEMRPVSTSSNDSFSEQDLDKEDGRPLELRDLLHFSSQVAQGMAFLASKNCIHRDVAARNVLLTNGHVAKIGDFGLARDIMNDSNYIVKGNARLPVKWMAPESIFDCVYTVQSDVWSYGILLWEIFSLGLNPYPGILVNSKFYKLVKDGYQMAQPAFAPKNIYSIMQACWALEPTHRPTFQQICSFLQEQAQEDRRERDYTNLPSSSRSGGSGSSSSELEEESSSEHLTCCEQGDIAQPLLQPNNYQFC
In short: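 At a low ATP level of 1 μM, phosphate transfer by the cytoplasmic-domain kinase (4 nM) was quantified with an AlphaScreen anti-phosphotyrosine bead pair.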

[3] = tested on: MNFS60 (murine AML cells); experiment: Cell viability assay in MCSF dependent MNFS60 cells (Cell Titer Glo); assay type: cell-based; conditions: Mus musculus, tested at about 1 μM, read-out: M-NFS-60 CP percent inhibition
In short: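 3-fold DMSO dilution series (500× stocks); MCSF 10 ng/ml final; 72 hrs, 37° C., 5% CO2; CellTiter-Glo read-out; n=3; EC50 fitted.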

T1 sequence (P07333 20-972): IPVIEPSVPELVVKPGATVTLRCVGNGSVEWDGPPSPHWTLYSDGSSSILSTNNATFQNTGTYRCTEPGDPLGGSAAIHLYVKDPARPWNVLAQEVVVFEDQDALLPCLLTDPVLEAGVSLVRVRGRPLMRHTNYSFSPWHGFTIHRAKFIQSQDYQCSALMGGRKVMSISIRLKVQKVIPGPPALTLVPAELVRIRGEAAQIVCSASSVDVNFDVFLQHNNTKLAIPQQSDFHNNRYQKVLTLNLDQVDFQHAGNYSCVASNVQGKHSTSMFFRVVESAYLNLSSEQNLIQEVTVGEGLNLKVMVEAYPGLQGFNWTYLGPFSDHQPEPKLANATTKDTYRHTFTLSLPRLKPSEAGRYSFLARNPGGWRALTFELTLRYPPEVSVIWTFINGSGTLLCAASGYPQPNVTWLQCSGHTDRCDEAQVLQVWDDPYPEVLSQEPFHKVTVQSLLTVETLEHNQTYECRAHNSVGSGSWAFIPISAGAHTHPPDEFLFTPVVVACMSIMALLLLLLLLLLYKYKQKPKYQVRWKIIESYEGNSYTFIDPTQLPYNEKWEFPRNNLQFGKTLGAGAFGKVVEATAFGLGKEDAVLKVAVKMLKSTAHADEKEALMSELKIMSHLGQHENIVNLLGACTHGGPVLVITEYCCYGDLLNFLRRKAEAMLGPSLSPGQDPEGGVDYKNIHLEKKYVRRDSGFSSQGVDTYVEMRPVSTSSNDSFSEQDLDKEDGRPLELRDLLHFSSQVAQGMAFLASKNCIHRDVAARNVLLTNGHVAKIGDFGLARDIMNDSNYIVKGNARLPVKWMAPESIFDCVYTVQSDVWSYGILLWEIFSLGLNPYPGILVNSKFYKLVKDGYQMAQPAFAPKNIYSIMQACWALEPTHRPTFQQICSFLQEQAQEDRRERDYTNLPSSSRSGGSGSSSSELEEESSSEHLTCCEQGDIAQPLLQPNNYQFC
T3 sequence (P10721 589-937 limits assumed): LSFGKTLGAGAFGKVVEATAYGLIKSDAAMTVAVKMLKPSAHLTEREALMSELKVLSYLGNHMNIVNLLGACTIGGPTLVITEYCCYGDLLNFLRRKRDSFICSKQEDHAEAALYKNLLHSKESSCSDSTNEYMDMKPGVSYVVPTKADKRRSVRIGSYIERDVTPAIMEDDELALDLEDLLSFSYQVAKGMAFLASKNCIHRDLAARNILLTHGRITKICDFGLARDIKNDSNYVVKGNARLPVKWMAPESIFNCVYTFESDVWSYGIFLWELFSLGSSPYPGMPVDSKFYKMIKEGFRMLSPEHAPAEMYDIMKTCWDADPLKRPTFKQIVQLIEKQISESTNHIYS
T2 sequence (P09619 600-962 limits assumed): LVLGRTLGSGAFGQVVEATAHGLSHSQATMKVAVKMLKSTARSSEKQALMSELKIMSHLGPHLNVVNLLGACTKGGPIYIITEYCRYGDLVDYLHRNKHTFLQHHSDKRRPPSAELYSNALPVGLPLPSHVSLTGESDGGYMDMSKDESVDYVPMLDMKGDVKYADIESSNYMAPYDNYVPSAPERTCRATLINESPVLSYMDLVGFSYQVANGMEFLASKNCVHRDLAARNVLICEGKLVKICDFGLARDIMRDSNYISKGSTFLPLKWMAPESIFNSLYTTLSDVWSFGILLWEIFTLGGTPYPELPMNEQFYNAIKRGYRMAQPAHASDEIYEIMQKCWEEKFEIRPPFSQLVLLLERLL

Compound	inhibition at 1 µM ([1]; HEK293H cells) [%]	inhibition at 1 µM (kinase domain of PDGFRβ) [%]	inhibition at 1 µM (kinase domain of cKIT) [%]	inhibition at 1 µM [2] [%]	inhibition at 1 µM ([3]; MCSF dependent MNFS60 cells) [%]	inhibition at 1 µM ([1]; compounds of Table 3) [%]	inhibition at 1 µM (kinase domain of PDGFRβ; compounds of Table 3) [%]	inhibition at 1 µM (kinase domain of cKIT; compounds of Table 3) [%]	inhibition at 1 µM ([2]; compounds of Table 3) [%]	inhibition at 1 µM ([3]; compounds of Table 3) [%]	inhibition at 1 µM ([3]; MNFS60 cells) [%]
CC(C)CCNc1nc2ccc(Oc3ccnc(-c4cnn(C)c4)c3)cc2s1 [Example 365, N-isopentyl-6-(2-(1-methyl-1H-pyrazol-4-yl)pyridin-4-yloxy)benzo[d]thiazol-2-amine]	97	79	100	100	100	–	–	–	–	–	–
O[C@@H]1CCCC[C@H]1Nc1nc2ccc(Oc3ccnc(-c4ccnc(N5CCOCC5)c4F)c3)cc2s1 [Cmpd 172, (1R,2R)-2-(6-(3'-fluoro-2'-morpholino-2,4'-bipyridin-4-yloxy)benzo[d]thiazol-2-ylamino)cyclohexanol]	–	–	–	–	–	97	18	22	100	100	–
CC(C)C[C@H](CO)Nc1nc2ccc(Oc3ccnc4ccccc34)cc2s1 [Example 245, (R)-4-methyl-2-(6-(quinolin-4-yloxy)benzo[d]thiazol-2-ylamino)pentan-1-ol]	–	–	–	–	–	81	21	16	100	53	–
c1ccc2c(Oc3ccc4nc(N[C@@H]5C[C@H]6CC[C@@H]5C6)sc4c3)ccnc2c1 [Example 251, N-((1R,2R,4S)-bicyclo[2.2.1]heptan-2-yl)-6-(quinolin-4-yloxy)benzo[d]thiazol-2-amine]	–	–	–	–	–	74	28	56	100	80	–
CNC(=O)c1cc(Oc2ccc3nc(NCc4cc(F)ccc4F)sc3c2)ccn1 [Compound 139, 4-[2-(2,5-Difluoro-benzylamino)-benzothiazol-6-yloxy]-pyridine-2-carboxylic acid methylamide]	94	0	21	100	–	–	–	–	–	–	48
CC(C)Cn1cc(-c2cc(Oc3ccc4nc(N[C@@H]5CCCC[C@H]5O)sc4c3)ccn2)cn1 [Example 359, (1R,2R)-2-(6-(2-(1-isobutyl-1H-pyrazol-4-yl)pyridin-4-yloxy)benzo[d]thiazol-2-ylamino)cyclohexanol]	93	19	31	100	95	–	–	–	–	–	–
CNC(=O)c1cc(Oc2ccc3nc(NCc4ccccc4N4CCOCC4)oc3c2)ccn1 [Compound 88, 4-[2-(2-Morpholin-4-yl-benzylamino)-benzooxazol-6-yloxy]-pyridine-2-carboxylic acid methylamide]	96	–	98	100	–	–	–	–	–	–	100
CC(=O)Nc1cc(Oc2ccc3nc(NCc4ccccc4Cl)oc3c2)ccn1 [Compound 32, N-{4-[2-(2-Chloro-benzylamino)-benzooxazol-6-yloxy]-pyridin-2-yl}-acetamide]	93	22	–	100	–	–	–	–	–	–	70
CNC(=O)c1cc(Oc2ccc3nc(NCc4ccc(Cl)cc4)oc3c2)ccn1 [Compound 27, 4-[2-(4-Chloro-benzylamino)-benzooxazol-6-yloxy]-pyridine-2-carboxylic acid methylamide]	96	28	–	99	–	–	–	–	–	–	97
CNC(=O)c1cc(Oc2ccc3nc(NCc4ccccc4N(C)C)oc3c2)ccn1 [Compound 85, 4-[2-(2-Dimethylamino-benzylamino)-benzooxazol-6-yloxy]-pyridine-2-carboxylic acid methylamide]	98	–	79	99	–	–	–	–	–	–	100
CNC(=O)c1cc(Oc2ccc3nc(NCC4CCCCC4)oc3c2)ccn1 [Compound 21, 4-[2-(Cyclohexylmethyl-amino)-benzooxazol-6-yloxy]-pyridine-2-carboxylic acid methylamide]	65	0	–	99	–	–	–	–	–	–	55
CNC(=O)c1cc(Oc2ccc3nc(N[C@H](C)c4cccc5ccccc45)oc3c2)ccn1 [Compound 18, 4-[2-((R)-1-Naphthalen-1-yl-ethylamino)-benzooxazol-6-yloxy]-pyridine-2-carboxylic acid methylamide]	74	35	–	100	–	–	–	–	–	–	91
CNC(=O)c1cc(Oc2ccc3nc(Nc4ccccc4CN4CCOCC4)oc3c2)ccn1 [Compound 25, 4-[2-(2-Morpholin-4-ylmethyl-phenylamino)-benzooxazol-6-yloxy]-pyridine-2-carboxylic acid methylamide]	35	7	–	98	–	–	–	–	–	–	42
CNC(=O)c1cc(Oc2ccc3nc(NCc4cccc(OC)c4OC)oc3c2)ccn1 [Compound 91, 4-[2-(2,3-Dimethoxy-benzyl-amino)-benzooxazol-6-yloxy]-pyridine-2-carboxylic acid methylamide]	97	–	93	99	–	–	–	–	–	–	87
CNC(=O)c1cc(Oc2ccc3nc(NC4CCCC(C)C4)oc3c2)ccn1 (stereo not shown) [Compound 10, 4-[2-(3-Methyl-cyclohexyl-amino)-benzooxazol-6-yloxy]-pyridine-2-carboxylic acid methylamide]	79	35	–	99	–	–	–	–	–	–	62
CNC(=O)c1cc(Oc2ccc3nc(N[C@H](C)c4ccccc4OC)oc3c2)ccn1 [Compound 31, 4-{2-[(R)-1-(2-Methoxy-phenyl)-ethylamino]-benzooxazol-6-yloxy}-pyridine-2-carboxylic acid methylamide]	79	–	18	100	–	–	–	–	–	–	57
CNC(=O)c1cc(Oc2ccc3nc(N[C@H]4C[C@H]5C[C@@H]([C@@H]4C)C5(C)C)oc3c2)ccn1 [Compound 13, 4-[2-((1S,2S,3S,5R)-2,6,6-Trimethyl-bicyclo[3.1.1]hept-3-ylamino)-benzooxazol-6-yloxy]-pyridin-2-carboxylic acid methylamide]	75	65	–	99	–	–	–	–	–	–	76
CNC(=O)c1cc(Oc2ccc3nc(NC[C@@H]4C[C@H]5CC[C@@H]4C5(C)C)oc3c2)ccn1 [Compound 15, 4-{2-[((1S,2R,4R)-7,7-Dimethyl-bicyclo[2.2.1]hept-2-ylmethyl)-amino]-benzooxazol-6-yloxy}-pyridin-2-carboxylic acid methylamide]	92	88	–	100	–	–	–	–	–	–	97
CNC(=O)c1cc(Oc2ccc3nc(NCc4cccc(Cl)c4)oc3c2)ccn1 [Compound 42, 4-[2-(3-Chloro-benzylamino)-benzooxazol-6-yloxy]-pyridine-2-carboxylic acid methylamide]	97	12	–	99	–	–	–	–	–	–	100
